Laboratory results published in ChEMBL document CHEMBL2203078, “Identification of amides as carboxylic Acid surrogates for quinolizidinone-based m1 positive allosteric modulators” (ACS Med Chem Lett, 2012).
Activity calls are given as the source filed them. The calls are words filed in the database; no cut-off is given here.

Tests used:
[1] = target: Voltage-gated inwardly rectifying potassium channel KCNH2 (Homo sapiens, UniProt Q12809); experiment: Binding affinity to human ERG
[2] = Protein binding in rat plasma; format: ADME, cell-free; conditions: read-out: PPB (converted)
[3] = Protein binding in human plasma; format: ADME, cell-free; conditions: read-out: PPB (converted)
[4] = Passive permeability across MDCK cells; format: ADME, cell-based, Canis lupus familiaris; conditions: dog
[5] = target: T1, Muscarinic acetylcholine receptor M4 (Homo sapiens) (UniProt P08173); experiment: Activity at muscarinic M4 receptor expressing in CHONFAT cells assessed as potentiation of acetylcholine-induced calcium mobilization preincubated for 4 mins and measured 4 mins after acetylcholine stimulation by FLIPR assay; format: functional, cell-based
T1 sequence (whole entry): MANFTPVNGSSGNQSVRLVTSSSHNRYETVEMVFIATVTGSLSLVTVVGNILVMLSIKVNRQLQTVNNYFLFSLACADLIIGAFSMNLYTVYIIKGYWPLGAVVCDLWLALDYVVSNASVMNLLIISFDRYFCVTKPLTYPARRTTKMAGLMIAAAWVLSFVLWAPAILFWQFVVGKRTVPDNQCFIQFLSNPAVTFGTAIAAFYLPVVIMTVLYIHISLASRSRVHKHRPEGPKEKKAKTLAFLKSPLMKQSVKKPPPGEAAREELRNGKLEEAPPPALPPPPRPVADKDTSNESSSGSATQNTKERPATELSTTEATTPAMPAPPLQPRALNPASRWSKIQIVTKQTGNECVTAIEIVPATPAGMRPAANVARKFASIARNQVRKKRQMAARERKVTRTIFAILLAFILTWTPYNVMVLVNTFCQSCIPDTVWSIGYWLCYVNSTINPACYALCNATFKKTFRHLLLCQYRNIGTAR

[6] = target: Muscarinic acetylcholine receptor M3 (Homo sapiens) (UniProt P20309); experiment: Activity at muscarinic M3 receptor expressing in CHONFAT cells assessed as potentiation of acetylcholine-induced calcium mobilization preincubated for 4 mins and measured 4 mins after acetylcholine stimulation by FLIPR assay; format: functional, cell-based
[7] = target: T2, Muscarinic acetylcholine receptor M2 (Homo sapiens) (UniProt P08172); experiment: Activity at muscarinic M2 receptor expressing in CHONFAT cells assessed as potentiation of acetylcholine-induced calcium mobilization preincubated for 4 mins and measured 4 mins after acetylcholine stimulation by FLIPR assay; format: functional, cell-based
T2 sequence (whole entry): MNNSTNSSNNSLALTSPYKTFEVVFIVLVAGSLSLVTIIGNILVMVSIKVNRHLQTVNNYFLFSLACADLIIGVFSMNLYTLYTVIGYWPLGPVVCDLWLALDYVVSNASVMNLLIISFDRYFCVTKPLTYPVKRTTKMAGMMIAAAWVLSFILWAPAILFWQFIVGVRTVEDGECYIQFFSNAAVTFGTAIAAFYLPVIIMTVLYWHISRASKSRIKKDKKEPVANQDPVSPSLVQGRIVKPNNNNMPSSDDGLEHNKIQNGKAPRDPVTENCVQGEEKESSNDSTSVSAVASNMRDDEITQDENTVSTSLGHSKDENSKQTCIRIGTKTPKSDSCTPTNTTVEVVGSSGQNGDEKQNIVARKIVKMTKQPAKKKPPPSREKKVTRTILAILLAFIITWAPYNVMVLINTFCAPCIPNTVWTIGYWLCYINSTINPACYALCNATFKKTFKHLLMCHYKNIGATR

[8] = target: T3, Muscarinic acetylcholine receptor M1 (Homo sapiens) (UniProt P11229); experiment: Positive allosteric modulation of human muscarinic M1 receptor expressing in CHONFAT cells assessed as potentiation of acetylcholine-induced calcium mobilization preincubated for 4 mins and measured 4 mins after acetylcholine stimulation by FLIPR assay; format: functional, cell-based
T3 sequence (whole entry): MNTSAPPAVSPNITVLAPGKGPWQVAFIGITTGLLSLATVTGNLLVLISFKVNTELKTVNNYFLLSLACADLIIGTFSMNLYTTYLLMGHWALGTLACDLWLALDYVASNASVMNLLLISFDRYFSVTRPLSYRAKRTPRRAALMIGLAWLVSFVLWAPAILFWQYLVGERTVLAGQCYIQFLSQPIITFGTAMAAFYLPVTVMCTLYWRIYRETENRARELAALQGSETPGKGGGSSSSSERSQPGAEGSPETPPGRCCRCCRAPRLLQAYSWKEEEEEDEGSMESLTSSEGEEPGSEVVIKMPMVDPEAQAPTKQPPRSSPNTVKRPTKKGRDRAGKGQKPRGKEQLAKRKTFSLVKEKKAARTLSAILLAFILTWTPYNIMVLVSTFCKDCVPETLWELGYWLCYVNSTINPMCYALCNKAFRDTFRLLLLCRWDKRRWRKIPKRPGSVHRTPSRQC

[9] = target: MDR1a (P-gp, ABCB1) (Rattus norvegicus, UniProt P43245); experiment: in vitro; conditions: not told
Description: Efflux ratio assessed as rat MDR1a-mediated directional transport ratio from basolateral to apical over apical to basolateral by cell based assay

[10] = target: MDR1 (P-gp, ABCB1) (Homo sapiens, UniProt P08183); experiment: in vitro; conditions: not told
Description: Efflux ratio assessed as human MDR1-mediated directional transport ratio from basolateral to apical over apical to basolateral by cell based assay

[11] = Ratio of drug level in brain to plasma of Sprague-Dawley rat at 10 mg/kg, po after 2 hrs; format: ADME, organism-based; design: dose 10 mg/kg, route oral; conditions: read-out: BPR
[12] = Drug concentration in Sprague-Dawley rat CSF at 10 mg/kg, po after 2 hrs; format: ADME, organism-based, Cerebrospinal fluid; design: dose 10 mg/kg, route oral; conditions: read-out: Drug uptake
[13] = Drug concentration in Sprague-Dawley rat brain at 10 mg/kg, po after 2 hrs; format: ADME, organism-based; design: dose 10 mg/kg, route oral; conditions: read-out: Drug uptake
[14] = Plasma concentration in Sprague-Dawley rat at 10 mg/kg, po after 2 hrs; format: ADME, organism-based; design: dose 10 mg/kg, route oral
[15] = system: Rattus norvegicus; experiment: Ratio of drug level in CSF to unbound drug level in plasma of Sprague-Dawley rat at 10 mg/kg, po after 2 hrs; conditions: in vivo
[16] = species on record: Mus musculus; experiment: Inhibition of scopolamine-induced memory deficit in mouse measured at plasma concentration of 1 uM after 24 hrs by contexual fear conditioning assay; format: functional, organism-based
[17] = target: T3, Muscarinic acetylcholine receptor M1 (Homo sapiens); experiment: Positive allosteric modulation of human muscarinic M1 receptor expressing in CHONFAT cells assessed as potentiation of acetylcholine-induced calcium mobilization at 34 uM preincubated for 4 mins and measured 4 mins after acetylcholine stimulation by FLIPR assay relative to untreated control; format: functional, cell-based
[18] = system: Plasma; experiment: Plasma concentration in mouse scopolamine-induced memory deficit model at 10 mg/kg, ip; format: ADME, organism-based; design: dose 10 mg/kg, route intraperitoneal; conditions: in vivo
[19] = system: Mus musculus; experiment: Inhibition of scopolamine-induced memory deficit in mouse pretreated with 10 to 30 mg/kg, ip after 24 hrs by contexual fear conditioning assay; format: functional, organism-based
[20] = Fraction unbound in human plasma; format: ADME, cell-free
[21] = Fraction unbound in rat plasma; format: ADME, cell-free
[22] = species on record: Mus musculus; experiment: Inhibition of scopolamine-induced memory deficit in mouse measured at plasma concentration of 2.5 uM after 24 hrs by contexual fear conditioning assay; format: functional, organism-based

Chain of Muscarinic acetylcholine receptor M3 (Homo sapiens) (P20309 whole entry, looked up): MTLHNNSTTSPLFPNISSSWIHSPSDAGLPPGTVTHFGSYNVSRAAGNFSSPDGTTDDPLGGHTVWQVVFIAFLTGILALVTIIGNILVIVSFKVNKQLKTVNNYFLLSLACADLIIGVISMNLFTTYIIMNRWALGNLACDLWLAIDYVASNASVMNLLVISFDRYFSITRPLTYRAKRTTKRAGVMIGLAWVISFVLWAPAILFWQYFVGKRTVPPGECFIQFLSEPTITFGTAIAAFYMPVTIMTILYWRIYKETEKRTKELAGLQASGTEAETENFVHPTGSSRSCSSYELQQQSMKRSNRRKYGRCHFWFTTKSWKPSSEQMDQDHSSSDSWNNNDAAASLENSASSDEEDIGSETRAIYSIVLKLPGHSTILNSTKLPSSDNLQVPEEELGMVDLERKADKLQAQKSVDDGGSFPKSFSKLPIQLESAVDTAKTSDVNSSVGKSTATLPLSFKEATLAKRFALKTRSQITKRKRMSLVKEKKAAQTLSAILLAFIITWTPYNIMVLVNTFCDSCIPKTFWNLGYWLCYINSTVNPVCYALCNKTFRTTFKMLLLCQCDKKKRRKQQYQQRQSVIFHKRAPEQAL
Chain of MDR1 (P-gp, ABCB1) (P08183 whole entry): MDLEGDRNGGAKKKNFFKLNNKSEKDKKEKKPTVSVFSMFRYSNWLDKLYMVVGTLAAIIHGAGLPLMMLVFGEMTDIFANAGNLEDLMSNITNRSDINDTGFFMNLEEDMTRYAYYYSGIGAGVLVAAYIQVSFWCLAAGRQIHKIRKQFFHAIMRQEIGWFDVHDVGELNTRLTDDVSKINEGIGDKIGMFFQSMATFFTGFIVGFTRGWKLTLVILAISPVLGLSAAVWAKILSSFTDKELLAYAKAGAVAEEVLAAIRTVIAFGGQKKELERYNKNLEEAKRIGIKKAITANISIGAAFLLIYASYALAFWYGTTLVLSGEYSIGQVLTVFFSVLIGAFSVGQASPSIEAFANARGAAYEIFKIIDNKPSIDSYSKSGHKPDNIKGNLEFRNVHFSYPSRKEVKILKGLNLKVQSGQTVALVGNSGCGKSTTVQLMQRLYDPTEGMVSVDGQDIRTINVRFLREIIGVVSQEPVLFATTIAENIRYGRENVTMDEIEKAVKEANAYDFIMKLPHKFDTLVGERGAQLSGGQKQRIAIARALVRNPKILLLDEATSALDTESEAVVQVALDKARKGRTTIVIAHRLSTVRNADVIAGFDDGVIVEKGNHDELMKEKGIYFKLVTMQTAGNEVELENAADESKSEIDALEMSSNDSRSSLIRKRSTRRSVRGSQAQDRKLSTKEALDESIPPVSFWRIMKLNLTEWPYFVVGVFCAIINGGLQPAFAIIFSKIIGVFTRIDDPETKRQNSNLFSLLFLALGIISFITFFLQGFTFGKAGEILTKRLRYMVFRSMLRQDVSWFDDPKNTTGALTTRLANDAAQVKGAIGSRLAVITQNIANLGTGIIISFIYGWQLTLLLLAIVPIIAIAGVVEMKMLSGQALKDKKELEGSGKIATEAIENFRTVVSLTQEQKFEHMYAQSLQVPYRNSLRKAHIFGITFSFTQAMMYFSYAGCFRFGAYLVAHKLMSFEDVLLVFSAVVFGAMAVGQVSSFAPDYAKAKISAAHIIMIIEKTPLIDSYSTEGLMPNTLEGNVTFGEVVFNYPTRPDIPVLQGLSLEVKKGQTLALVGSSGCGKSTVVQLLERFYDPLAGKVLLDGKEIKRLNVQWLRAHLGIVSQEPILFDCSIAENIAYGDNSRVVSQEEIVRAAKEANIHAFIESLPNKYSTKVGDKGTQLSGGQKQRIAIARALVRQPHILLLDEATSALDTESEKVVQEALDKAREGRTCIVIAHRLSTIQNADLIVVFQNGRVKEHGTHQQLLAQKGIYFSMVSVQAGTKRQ
Chain of MDR1a (P-gp, ABCB1) (P43245 whole entry): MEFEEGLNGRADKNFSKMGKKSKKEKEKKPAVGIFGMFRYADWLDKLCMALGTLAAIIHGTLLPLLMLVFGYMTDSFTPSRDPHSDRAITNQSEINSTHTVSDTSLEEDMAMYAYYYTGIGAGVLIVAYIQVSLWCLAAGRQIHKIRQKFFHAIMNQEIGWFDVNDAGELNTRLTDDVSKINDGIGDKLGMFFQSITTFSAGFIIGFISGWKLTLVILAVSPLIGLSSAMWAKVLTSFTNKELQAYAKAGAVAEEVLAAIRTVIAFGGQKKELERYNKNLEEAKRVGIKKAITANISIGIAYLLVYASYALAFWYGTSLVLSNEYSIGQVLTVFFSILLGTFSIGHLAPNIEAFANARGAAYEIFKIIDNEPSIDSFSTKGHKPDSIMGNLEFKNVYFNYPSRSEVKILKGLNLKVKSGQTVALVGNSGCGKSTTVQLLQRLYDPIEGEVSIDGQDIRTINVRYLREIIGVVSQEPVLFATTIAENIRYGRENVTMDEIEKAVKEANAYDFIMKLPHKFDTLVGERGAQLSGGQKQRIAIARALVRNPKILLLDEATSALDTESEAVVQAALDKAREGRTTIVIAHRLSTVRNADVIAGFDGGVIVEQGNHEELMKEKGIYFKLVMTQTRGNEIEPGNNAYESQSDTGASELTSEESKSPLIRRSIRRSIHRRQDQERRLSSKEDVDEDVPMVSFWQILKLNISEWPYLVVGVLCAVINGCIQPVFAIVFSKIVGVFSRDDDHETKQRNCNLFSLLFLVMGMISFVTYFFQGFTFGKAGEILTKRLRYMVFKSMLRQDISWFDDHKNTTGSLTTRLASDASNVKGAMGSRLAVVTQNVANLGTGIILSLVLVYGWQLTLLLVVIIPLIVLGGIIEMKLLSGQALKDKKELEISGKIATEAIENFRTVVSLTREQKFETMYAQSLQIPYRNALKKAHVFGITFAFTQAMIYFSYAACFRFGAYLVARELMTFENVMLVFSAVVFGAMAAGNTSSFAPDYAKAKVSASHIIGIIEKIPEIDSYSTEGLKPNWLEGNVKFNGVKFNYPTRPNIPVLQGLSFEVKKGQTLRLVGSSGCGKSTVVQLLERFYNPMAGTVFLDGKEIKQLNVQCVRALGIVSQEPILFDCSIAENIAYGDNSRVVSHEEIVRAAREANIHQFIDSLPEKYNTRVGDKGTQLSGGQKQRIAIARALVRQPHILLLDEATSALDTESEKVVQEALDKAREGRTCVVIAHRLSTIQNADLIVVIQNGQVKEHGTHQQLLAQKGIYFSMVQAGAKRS
Chain of Voltage-gated inwardly rectifying potassium channel KCNH2 (Q12809 whole entry): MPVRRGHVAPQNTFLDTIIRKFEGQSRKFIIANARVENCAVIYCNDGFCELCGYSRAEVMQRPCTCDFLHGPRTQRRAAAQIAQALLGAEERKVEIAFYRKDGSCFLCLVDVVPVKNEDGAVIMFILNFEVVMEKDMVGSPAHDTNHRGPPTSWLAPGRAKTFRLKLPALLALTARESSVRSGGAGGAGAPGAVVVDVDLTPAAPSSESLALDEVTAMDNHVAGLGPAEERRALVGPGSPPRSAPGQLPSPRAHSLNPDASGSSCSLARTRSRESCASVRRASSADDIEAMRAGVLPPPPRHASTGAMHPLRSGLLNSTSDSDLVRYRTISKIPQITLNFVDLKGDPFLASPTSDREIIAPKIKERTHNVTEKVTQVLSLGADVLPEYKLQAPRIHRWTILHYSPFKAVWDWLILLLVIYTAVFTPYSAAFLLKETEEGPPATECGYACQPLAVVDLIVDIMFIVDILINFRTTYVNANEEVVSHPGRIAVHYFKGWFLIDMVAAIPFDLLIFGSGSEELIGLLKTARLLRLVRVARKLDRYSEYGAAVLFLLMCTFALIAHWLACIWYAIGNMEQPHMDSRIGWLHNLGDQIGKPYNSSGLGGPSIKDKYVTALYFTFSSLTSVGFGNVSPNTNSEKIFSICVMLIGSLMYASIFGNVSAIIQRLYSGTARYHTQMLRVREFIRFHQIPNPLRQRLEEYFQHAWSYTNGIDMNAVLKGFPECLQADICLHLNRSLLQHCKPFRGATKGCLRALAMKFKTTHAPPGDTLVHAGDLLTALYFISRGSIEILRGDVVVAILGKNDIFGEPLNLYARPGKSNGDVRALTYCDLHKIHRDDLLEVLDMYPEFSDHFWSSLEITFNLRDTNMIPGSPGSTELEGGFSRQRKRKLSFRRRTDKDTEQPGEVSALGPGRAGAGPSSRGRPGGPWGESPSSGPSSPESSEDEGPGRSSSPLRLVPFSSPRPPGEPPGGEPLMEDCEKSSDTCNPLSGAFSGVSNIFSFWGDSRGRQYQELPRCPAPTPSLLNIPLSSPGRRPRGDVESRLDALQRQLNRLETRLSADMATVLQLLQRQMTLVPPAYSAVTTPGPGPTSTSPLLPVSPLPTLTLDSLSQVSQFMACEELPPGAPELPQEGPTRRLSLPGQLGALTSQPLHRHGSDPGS

fraction unbound [2]	fraction unbound [3]	Papp [4] [×10⁻⁶ cm/s]	Activity [5]	Activity [6]	Activity [7]	IP [8] [nM]	efflux ratio [9]	efflux ratio [10]	Kp at 2 h [11]	concentration at 2 h [12] [nM]	concentration at 2 h [13] [nM]	SMILES	IC50 [1] [nM]	concentration at 2 h [14] [nM]	Ratio [15]	also measured
0.061	0.095	30	inactive	inactive	inactive	244	4.7	1.1				N#Cc1ccc(N2CCN(Cc3cc(C(=O)N[C@H]4CCCC[C@@H]4O)c(=O)n4ccccc34)CC2)cc1	390			
0.031	0.148	32	inactive	inactive	inactive	45	3.3	2.3	0.52	29	896	N#CC1(c2ccccc2)CCN(Cc2cc(C(=O)N[C@H]3CCCC[C@@H]3O)c(=O)n3ccccc23)CC1	5100	1610	0.58	
0.073	0.185	26	inactive	inactive	inactive	147	3.4	1.9	0.28	27	280	N#CC1(c2ccccn2)CCN(Cc2cc(C(=O)N[C@H]3CCCC[C@@H]3F)c(=O)n3ccccc23)CC1		1120	0.33	
0.032	0.087	29	inactive	inactive	inactive	110						O=C(N[C@H]1CCCC[C@@H]1O)c1cc(CN2CCN(c3cc4ccccc4cn3)CC2)c2ccccn2c1=O				inhibition [22]: Active

SMILES	fraction unbound [2]	fraction unbound [3]	Papp [4] [×10⁻⁶ cm/s]	Activity [5]	Activity [6]	Activity [7]	IP [8] [nM]	efflux ratio [9]	efflux ratio [10]	Kp at 2 h [11]	concentration at 2 h [12] [nM]	concentration at 2 h [13] [nM]	IC50 [1] [nM]	concentration at 2 h [14] [nM]	Ratio [15]	also measured
N#CC1(c2ccccn2)CCN(Cc2cc(C(=O)O)c(=O)n3ccccc23)CC1 [MSD-M1PAM]	0.318	0.291	18					1.4	0.5					1480	0.3	inhibition [16]: Active
N#CC1(c2ccccn2)CCN(Cc2cc(C(=O)NC3CCOCC3)c(=O)n3ccccc23)CC1	0.268	0.49	33	inactive	inactive	inactive	338	7.5	2.4	0.21	215	559		2650	0.3	fold change (FC) [17]: 52; concentration [18]: 2400 nM; inhibition [19]: Active; fraction unbound [20]: 0.49; fraction unbound [21]: 0.27
